US20050148495A1, “Methods and materials including for treating acne” (priority 2003, published 2005)
In brackets after ≈: the same amount, converted by molar mass. Where two headings read alike, the source gives them in different places. Non-standard residues stand in square brackets, D forms with d. Residues, ends and D or L forms follow the SMILES beside them. d1Nal = N[C@H](Cc1cccc2ccccc12)C(=O)O

Legend:
Escherichia coli = assay: microbe, parasite or virus in culture; format: cell-based
Method: (§1) Acne vulgaris may involve a microbial consortium. Although P. acnes may be a prominent member of such a consortium, other uncharacterized bacteria may also participate. The microbial activity of XMP.629 as an acetate gel as described in Example 5 and other commonly used antibiotics was evaluated against a panel of human pathogens using standardized NCCLS protocols. […] Lesser potency was observed against the gram-negative organisms B. fragilis, B. cepacia, P. mirabilis and S. marcescens, which are often refractory to many antimicrobial compounds.

Proteus mirabilis = assay: microbe, parasite or virus in culture; format: cell-based; conditions: Proteus mirabilis 29852
Method: as §1

Porphyromonas gingivalis = assay: microbe, parasite or virus in culture; format: cell-based; conditions: Porphyromonas gingivalis 33277
Method: as §1

Bacteroides fragilis = assay: microbe, parasite or virus in culture; format: cell-based; conditions: Bacteroides fragilis 25285
Method: as §1

Salmonella ryphimurium = assay: microbe, parasite or virus in culture; format: cell-based; conditions: Salmonella ryphimurium SL770
Method: as §1

Klebsiella pneumoniae = assay: microbe, parasite or virus in culture; format: cell-based
Method: as §1

Prevotella intermedia = assay: microbe, parasite or virus in culture; format: cell-based; conditions: Prevotella intermedia 25261
Method: as §1

Serratia marcescens = assay: microbe, parasite or virus in culture; format: cell-based
Method: as §1

[1] = tested on: Actinobacillus actinomycetemcomitans; assay: microbe, parasite or virus in culture; format: cell-based; conditions: Actinobacillus actinomycetemcomitans 43718
Method: as §1

Burkholderia cepacia = assay: microbe, parasite or virus in culture; format: cell-based; conditions: Burkholderia cepacia 25416
Method: as §1

S. aureus = assay: Comparison of XMP.629 with standard topical agents (MIC90/MBC); format: cell-based, Staphylococcus aureus
Method: (§2) Control tubes containing only water or formulation buffer were prepared for each isolate. Initial growth controls were determined by removing 10 μL from the water control tube and diluting it by 100 fold. From this dilution, 10 μL was used for inoculation and for spreading over the surface onto Laked Blood Agar (LBA) (Anaerobe Systems, Morgan Hill, Calif.) plates. The tubes and plates were incubated in an anaerobic atmosphere at 37° C. for 48 h. […] MBC50 and 90 values represent where 50 and 90%, respectively, of the tested strain's MBC values are equal to or less than the indicated concentration.

Enterococcus = format: cell-based
Method: as §2

[2] = tested on: Propionibacterium isolates; conditions: 15 isolates
Method: Inoculum from a representative panel of bacterial strains associated with acne, such as P. acnes, P. avidum, P. granulosum, and Staphylococcus epidermis was prepared by suspending approximately 5-10 isolated bacterial colonies in pre-reduced MicroScan® Inoculum Water (Dade Behring, Deerfield, Ill.), and growing the bacterial suspension to log phase (approximately 48 hrs). An inoculum of between 1-5×10^6/mL was achieved by adding 100 μL of the suspension to 25 mL Brain Heart Infusion Broth (BHI) (Anaerobe Systems, Morgan Hill, Calif.).
as §2

[3] = [3H]-labeled XMP.629, 0.3 mg/kg intravenous, estimate
[4] = tested on: albino hairless guinea pigs Crl:IAF(HA)-hrBR (Outbred); assay: Photosafety study: primary irritancy, phototoxicity, contact hypersensitivity, photoallergy; format: in vivo, guinea pig; conditions: XMP.629 up to 10 mg/mL (1.0%)
Method: XMP.629 was evaluated for photoallergic potential administered topically to hairless guinea pigs. Primary irritancy, phototoxicity (photoirritancy) and contact hypersensitivity were also evaluated in these studies.
Male CrI:IaF(HA)-hrBR (Outbred) albino hairless guinea pigs were assigned to 7 groups, five guinea pigs per group as outlined below.
XMP.629 was formulated as a gel. The phototoxicity comparator article was 8-methoxypsoralen (8-MOP) in methanol at concentrations of 0.1, 0.3 and 1.0 mg/mL. The contact hypersensitivity and photoallergy comparator article was 3,3′,4′,5′-tetrachlorosalicy/anilide (TCSA) in acetone:corn oil (4:1, v/v) at challenge concentrations of 0 (Vehicle), 10, and 30 mg/mL. The reagent and reagent vehicle were Freund's complete adjuvant (FCA) and sterile water for injection, USP, respectively.
The formulation administration and ultraviolet radiation (UVR) exposure regimens for each group in the study were as follows.
For all phases of the study, test articles, test article vehicles, comparator articles and comparator article vehicles were administered (0.3 ml) using a Hilltop chamber affixed to the guinea pig with dental dam overlaid with a Velcro® wrap for approximately 2.0 hours per administration.
Primary irritancy potential of the test articles and test article vehicles was evaluated in Group 1 guinea pigs. Three chambers (one per formulation dosage) were attached to the dorsal skin along the midline. After the administration period the chamber patches were removed and the application sites were gently wiped.
Cutaneous phototoxicity potential of the test articles and test article vehicles was evaluated in Group 2 guinea pigs. Group 3 guinea pigs were used as a comparator group with elicitation of phototoxicity with 8-MOP. Three chambers (one per formulation dosage) were attached to the dorsal skin along the midline and occluded. After the administration period the chamber patches were removed and the application sites were gently wiped. After wiping, Group 2 and 3 guinea pigs were exposed to solar-simulated UVR for approximately 2.25 hours.
For induction of contact hypersensitivity and photoallergy, a nuchal area of skin approximately 2.5 cm^2 was defined by intradermal injections with a formulation of sterile water and FCA in guinea pigs in Groups 4 through 7 under isoflurane/oxygen anesthesia. This skin area was then tape stripped five times. Formulations were topically administered via chambers as described in the study design table using one chamber attached to the nuchal area. After removal of the chambers the application sites were gently wiped and the nuchal site of Group 6 and 7 guinea pigs was exposed to UVR as above. Appropriate procedures for guinea pigs (with the exception of injection with FCA) were repeated once daily on Days 3, 5, 8, 10 and 12 of the induction phase.
On Day 22 (contact hypersensitivity and photoallergy challenge), formulations were topically applied to appropriate sites on guinea pigs in Groups 4 through 7 as described above. Three chambers (one per formulation dosage) were attached to the dorsal skin along the midline and occluded. The chambers were then removed and the application sites were gently wiped. Guinea pigs in Groups 6 and 7 were then exposed to UVR as above.
Observations for general appearance and clinical signs were made weekly throughout the study. […] Body weights were recorded at initiation of dosing for each phase, weekly thereafter and at sacrifice. […]

[5] = 72 hours following dosing
Clostridium difficile = Clostridium difficile 9689
[6] = Formulation Buffer Solvent, Study 1
[7] = Formulation Buffer Solvent, Study 2

CC(C)C[C@@H](NC(=O)[C@H](N)CCCCN)C(=O)N[C@H](Cc1ccccc1)C(=O)N[C@H](CCCNC(=N)N)C(=O)N[C@H](Cc1cccc2ccccc12)C(=O)N[C@H](CCC(N)=O)C(=O)N[C@H](C)C(=O)N[C@H](CCCCN)C(=O)N[C@H](Cc1cccc2ccccc12)C(N)=O [XMP.629, NH2-lys-leu-phe-arg-(3-(1-naphthyl)-ala)-gln-ala-lys-(3-(1-naphthyl)-ala)-CONH2] (H-[dK][dL][dF][dR][d1Nal][dQ][dA][dK][d1Nal]-NH2)
Minimum Inhibitory Concentrations (Escherichia coli; Escherichia coli 07:K1): 4.00 µg/mL | Minimum Inhibitory Concentrations (Escherichia coli; Escherichia coli 0111:B4): 2.00 µg/mL | Minimum Inhibitory Concentrations (Proteus mirabilis): >64 µg/mL | Minimum Inhibitory Concentrations (Porphyromonas gingivalis): 4.00 µg/mL | Minimum Inhibitory Concentrations (Bacteroides fragilis): 16.0 µg/mL | Minimum Inhibitory Concentrations (Salmonella ryphimurium): 4.00 µg/mL | Minimum Inhibitory Concentrations (Klebsiella pneumoniae; Klebsiella pneumoniae 19645): 2.00 µg/mL | Minimum Inhibitory Concentrations (Klebsiella pneumoniae; Klebsiella pneumoniae 29011): 8.00 µg/mL | Minimum Inhibitory Concentrations (Prevotella intermedia): 2.00 µg/mL | Minimum Inhibitory Concentrations (Serratia marcescens; Serratia marcescens 13880): 64.0 µg/mL | Minimum Inhibitory Concentrations (Serratia marcescens; Serratia marcescens 14756): 32.0 µg/mL | Minimum Inhibitory Concentrations [1]: 4.00 µg/mL | Minimum Inhibitory Concentrations (Burkholderia cepacia): 32.0 µg/mL | MIC90, XMP.629 data reported as MBC values (S. aureus): 8 µg/mL (≈ 6.23 µM) | MIC90, XMP.629 data reported as MBC values (S. aureus; in FB (formulation buffer)): 0.06 µg/mL (≈ 0.0467 µM) | MIC90, XMP.629 data reported as MBC values (Enterococcus): 4 µg/mL (≈ 3.12 µM) | MIC90, XMP.629 data reported as MBC values (Enterococcus; in FB (formulation buffer)): 0.5 µg/mL (≈ 0.39 µM) | MBC GeoMean Values [2, 6]: 1.2 µg/mL (≈ 0.935 µM) | MIC GeoMean Values [2, 6]: 0.7 µg/mL (≈ 0.545 µM) | MBC GeoMean Values [2, 7]: 1.10 µg/mL (≈ 0.857 µM) | MIC GeoMean Values [2, 7]: 0.7 µg/mL (≈ 0.545 µM) | MBC GeoMean Values ([2]; Water Solvent, Study 1): 2.41 µg/mL (≈ 1.88 µM) | MIC GeoMean Values ([2]; Water Solvent, Study 1): 1.7 µg/mL (≈ 1.32 µM) | MBC GeoMean Values ([2]; Water Solvent, Study 2): 1.9 µg/mL (≈ 1.48 µM) | MIC GeoMean Values ([2]; Water Solvent, Study 2): 1.7 µg/mL (≈ 1.32 µM) | CL (clearance) ([3]; male Sprague-Dawley rats, three compartment model): 358.7 g plasma/hr/kg | C0 (extrapolated plasma concentration at time 0) ([3]; rat): 2.49 μg equivalents/g | Vc (volume of distribution of the central compartment) ([3]; rat): 0.121 L/kg | Vss (volume of distribution at steady state) ([3]; rat): 1.657 L/kg | t1/2 (average half-life) ([3]; rat): 13.8 min | t1/2α (α half-life) ([3]; rat): 1.92 min | t1/2β (β half-life) ([3]; rat): 46.2 min | t1/2γ (γ half-life) ([3]; rat): 498 min | contact hypersensitivity [4]: did not cause skin changes | photoallergy [4]: did not cause skin changes | phototoxicity ([4]; single topical administration and UVR): did not cause skin changes | primary irritation ([4]; single topical administration, 0.3 mL/skin site): did not cause skin changes | radioactivity remained in the body (carcass) [5]: 79.7% | Minimum Inhibitory Concentrations (Clostridium difficile): 2.00 µg/mL
